According to paper PMC6271231 (Molecules, 2014):
“Also recorded” adds a separate entry of the source.

target: NA of A/PR/8/34 (H1N1) (Influenza A virus, UniProt P03468); test: biochemical; type: biochemical, influenza A virus A/PR/8/34 (H1N1)
Sequence (P03468 whole entry): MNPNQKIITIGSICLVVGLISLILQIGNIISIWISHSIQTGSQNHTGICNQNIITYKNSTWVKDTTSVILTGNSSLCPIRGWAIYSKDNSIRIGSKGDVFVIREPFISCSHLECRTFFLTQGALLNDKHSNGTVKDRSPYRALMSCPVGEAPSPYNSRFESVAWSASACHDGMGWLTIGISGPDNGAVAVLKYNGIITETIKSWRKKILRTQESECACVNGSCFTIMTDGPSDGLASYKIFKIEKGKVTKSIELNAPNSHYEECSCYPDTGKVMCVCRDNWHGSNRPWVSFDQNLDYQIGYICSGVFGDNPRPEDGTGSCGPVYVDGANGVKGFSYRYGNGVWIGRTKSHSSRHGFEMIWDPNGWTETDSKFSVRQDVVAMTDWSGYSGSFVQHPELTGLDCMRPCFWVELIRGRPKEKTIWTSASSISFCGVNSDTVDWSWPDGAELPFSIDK

Structure (SMILES)	IC50	inhibitory effect against influenza H1N1 virus neuraminidase (in words)
CC1(C)O[C@@H]2Cc3c(O)cc(OC(=O)c4cc(O)c(O)c(O)c4)cc3O[C@@H]2c2cc(O)c(O)c(O)c21 [Compound 1, (2R,3R)-7-O-galloylplumbocatechin A]	59.7 µM	higher inhibitory activities on NA from influenza H1N1 virus than on those from influenza H3N2 and B viruses; also recorded: moderate inhibitory effects; also recorded: best results
O=C(Oc1cc(O)c2c(c1)O[C@H](c1cc(O)c(O)c(O)c1)CC2)c1cc(O)c(O)c(O)c1 [Compound 2, (−)-5,3',4',5'-tetrahydroxyflavan-7-gallate]	83.4 µM	higher inhibitory activities on NA from influenza H1N1 virus than on those from influenza H3N2 and B viruses; also recorded: moderate inhibitory effects
O=C(Oc1cc(O)c2c(c1)OC(c1cc(O)c(O)c(O)c1)C(O)C2)c1cc(O)c(O)c(O)c1 (single isomer, unassigned; (+)) [Compound 3, (+)-3,5,3',4',5'-penta-hydroxyflavan-7-gallate]	> 87.3 µM	–
O=C(Oc1cc(O)c2c(c1)O[C@H](c1cc(O)c(OC(=O)c3cc(O)c(O)c(O)c3)c(O)c1)CC2)c1cc(O)c(O)c(O)c1 [Compound 4, (−)-7,4'-di-O-galloyltricetiflavan]	> 67.3 µM	–
